This is an account of results in ChEMBL document CHEMBL5518225, “Mechanism-Based Macrocyclic Inhibitors of Serine Proteases” (J Med Chem, 2024).

Series [1] has as its target Transmembrane protease serine 2 (Homo sapiens, UniProt O15393). The experiment in a line: Inhibition of N-terminal 6His-tagged human recombinant TMPRSS2 (106 to 492 residues) using Boc-QAR-AMC as substrate preincubated for 30 mins followed by substrate addition and measured by fluorescence based analysis.
Series [2] addresses T1, Hepatocyte growth factor activator serine protease (Homo sapiens, UniProt Q04756).
T1 sequence (Q04756 whole entry): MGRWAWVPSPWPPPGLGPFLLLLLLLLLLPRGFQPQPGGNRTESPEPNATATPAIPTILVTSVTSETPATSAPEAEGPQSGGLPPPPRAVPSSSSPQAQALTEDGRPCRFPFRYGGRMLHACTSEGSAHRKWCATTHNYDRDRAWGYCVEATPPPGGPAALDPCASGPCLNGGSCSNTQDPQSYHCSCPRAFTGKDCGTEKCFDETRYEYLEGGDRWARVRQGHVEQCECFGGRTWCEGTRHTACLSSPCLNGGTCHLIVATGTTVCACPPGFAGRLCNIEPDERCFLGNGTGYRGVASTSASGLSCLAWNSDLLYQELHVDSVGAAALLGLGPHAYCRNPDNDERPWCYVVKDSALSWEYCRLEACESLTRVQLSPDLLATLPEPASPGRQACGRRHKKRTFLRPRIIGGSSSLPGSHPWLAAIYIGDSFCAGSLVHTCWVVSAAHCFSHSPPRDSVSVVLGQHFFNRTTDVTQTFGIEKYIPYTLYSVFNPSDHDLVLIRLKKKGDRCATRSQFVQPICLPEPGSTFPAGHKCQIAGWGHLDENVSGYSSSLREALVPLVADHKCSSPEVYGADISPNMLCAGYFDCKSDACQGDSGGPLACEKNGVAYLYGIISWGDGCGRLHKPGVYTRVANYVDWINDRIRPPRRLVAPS
Nature of the series: Inhibition of C-terminal 10-His tagged human recombinant HGFA (Gln36 to Ser655 residues) using Boc-QLR-AMC as substrate preincubated for 30 mins followed by substrate addition and measured by fluorescence based analysis.

Series [3] concerns the target T2, Suppressor of tumorigenicity 14 protein (Homo sapiens, UniProt Q9Y5Y6).
T2 sequence (Q9Y5Y6 whole entry): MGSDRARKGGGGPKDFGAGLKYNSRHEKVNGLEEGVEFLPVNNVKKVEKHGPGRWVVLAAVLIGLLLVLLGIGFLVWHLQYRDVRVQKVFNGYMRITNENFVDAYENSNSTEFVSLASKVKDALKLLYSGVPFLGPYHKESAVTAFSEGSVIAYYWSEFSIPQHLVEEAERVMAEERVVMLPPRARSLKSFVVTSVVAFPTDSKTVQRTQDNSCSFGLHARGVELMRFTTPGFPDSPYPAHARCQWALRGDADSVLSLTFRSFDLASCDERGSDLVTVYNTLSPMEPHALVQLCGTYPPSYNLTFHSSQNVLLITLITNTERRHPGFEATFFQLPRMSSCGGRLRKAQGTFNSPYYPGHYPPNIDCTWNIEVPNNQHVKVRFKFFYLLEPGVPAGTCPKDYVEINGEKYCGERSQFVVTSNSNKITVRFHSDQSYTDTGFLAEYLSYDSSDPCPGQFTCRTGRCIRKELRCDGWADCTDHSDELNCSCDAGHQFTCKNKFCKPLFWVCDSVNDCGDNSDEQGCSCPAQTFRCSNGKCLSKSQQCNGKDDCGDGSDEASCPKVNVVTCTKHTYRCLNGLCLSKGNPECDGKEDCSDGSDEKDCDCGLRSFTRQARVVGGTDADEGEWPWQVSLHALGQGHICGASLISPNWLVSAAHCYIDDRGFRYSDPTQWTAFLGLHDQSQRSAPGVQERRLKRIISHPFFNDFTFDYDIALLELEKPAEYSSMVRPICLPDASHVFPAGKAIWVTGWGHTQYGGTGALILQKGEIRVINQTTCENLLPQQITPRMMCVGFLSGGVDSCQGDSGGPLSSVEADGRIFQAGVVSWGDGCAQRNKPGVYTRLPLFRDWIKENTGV
The experiment in a line: Inhibition of N-terminal Met/6His tagged human recombinant matriptase catalytic domain (Gly596 to Val855 residues) using Boc-QAR-AMC as substrate preincubated for 30 mins followed by substrate addition and measured by fluorescence based analysis.

Series [4] has as its target Serine protease hepsin (Homo sapiens, UniProt P05981). The experiment in a line: Inhibition of C-terminal 10-His tagged human recombinant hepsin (Arg45 to Leu417 residues) using Boc-QAR-AMC as substrate preincubated for 30 mins followed by substrate addition and measured by fluorescence based analysis.
Series [5] is described as follows: Metabolic stability in mouse plasma assessed as compound remaining measured at 2 hrs. The format is ADME, cell-free. As to conditions: read-out: Stability; call rule not given here.
Series [6] in a line: Metabolic stability in human plasma assessed as compound remaining measured at 2 hrs. The format is ADME, cell-free. The note with it: read-out: Stability.
The nature of series [7]: Metabolic stability in mouse plasma assessed as half life. Format: ADME, cell-free.
Series [8] is described as follows: Metabolic stability in human plasma assessed as half life. The format is ADME, cell-free.
The target in series [9] is Coagulation factor X, Homo sapiens (UniProt P00742). The experiment in a line: Inhibition of factor Xa (unknown origin) using Bz-lle-Glu-Gly-Arg-pNA as chromogenic substrate preincubated for 30 mins followed by substrate addition by absorbance based analysis.
Series [10] in a line: Metabolic stability in mouse plasma assessed as drug degradation measured after 2 hrs. The format is ADME, cell-free.
Series [11] can be described thus: Half life in male CD-1 mouse at 13 to 20 mg/kg, ip administered as single dose and measured upto 24 hrs by LC-MS/MS analysis. Format: ADME, organism-based. As to conditions: in vivo, dose 13-20 mg/kg.
Series [12] in a line: Drug uptake in male CD-1 mouse at 13 to 20 mg/kg, ip administered as single dose and measured upto 24 hrs by LC-MS/MS analysis. The format is ADME, organism-based. The note with it: in vivo, dose 13-20 mg/kg.
Series [13] can be described thus: Elimination half life in male CD-1 mouse at 13 to 20 mg/kg, ip administered as single dose and measured upto 24 hrs by LC-MS/MS analysis. The format is ADME, organism-based. As to conditions: in vivo, dose 13-20 mg/kg.
The species entered for series [14] is Homo sapiens. Nature of the series: Selectivity index, ratio of IC50 for inhibition of C-terminal 10-His tagged human recombinant HGFA (Gln36 to Ser655 residues) to IC50 for inhibition of N-terminal 6His-tagged human recombinant TMPRSS2 (106 to 492 residues).
Series [15] is filed under the species Homo sapiens. The experiment in a line: Selectivity index, ratio of IC50 for inhibition of N-terminal Met/6His tagged human recombinant matriptase catalytic domain (Gly596 to Val855 residues) to IC50 for inhibition of N-terminal 6His-tagged human recombinant TMPRSS2 (106 to 492 residues).
Series [16] is filed under the species Homo sapiens. The experiment in a line: Selectivity index, ratio of IC50 for inhibition of C-terminal 10-His tagged human recombinant hepsin (Arg45 to Leu417 residues) to IC50 for inhibition of N-terminal 6His-tagged human recombinant TMPRSS2 (106 to 492 residues).

The structures appear in SMILES notation.

As usually defined, the IC50 is the concentration at which inhibition is half-maximal. Consider `CC(=O)N[C@H]1C/C=C/COc2ccc(cc2)C[C@@H](C(=O)N[C@@H](CCCNC(=N)N)C(=O)c2nc3ccccc3s2)NC(=O)[C@H](CC(C)C)NC1=O`, for which the IC50 is 14 nM in [1]; greater than 20000 nM in [2]; 14 nM in series [3]; 20 nM in [4]; greater than 20000 nM in series [9]. Further, the remaining at 2 h in [5] was found to be 84%; in [6], 78%. Moreover, the t1/2 in series [7] is greater than 4.82 h; in [8], 4.77 h.
As for `CC(=O)N[C@H]1Cc2ccc(cc2)OCCCC[C@@H](C(=O)N[C@@H](CCCNC(=N)N)C(=O)c2nc3ccccc3s2)NC(=O)[C@H](Cc2c[nH]c3ccccc23)NC1=O`, the IC50 in [4] turned out to be 2.8 nM. Moreover, the remaining at 2 h is 78% in series [5] and 67% in series [6]. Further, the t1/2 in [7] was greater than 4.82 h; in series [8] it was 3.82 h.
`CC(=O)N[C@H]1Cc2cccc(c2)Oc2ccc(cc2)C[C@@H](C(=O)N[C@@H](CCCNC(=N)N)C(=O)c2nc3ccccc3s2)NC(=O)[C@H](CC(C)C)NC1=O`: the IC50 in series [1] was determined as 15 nM.
Consider `CC(=O)N[C@H]1Cc2ccc(cc2)OC/C=C\CNC(=O)C[C@@H](C(=O)N[C@@H](CCCNC(=N)N)C(=O)c2nc3ccccc3s2)NC(=O)[C@H](CC(C)C)NC1=O`, for which the figures for the IC50 in series [1], in [3] and in series [9] were 22 nM, 54 nM and greater than 20000 nM, respectively. Further, the remaining at 2 h in series [5] came out at 95%; in [6], 81%. The t1/2 in [7] and in series [8] was greater than 4.82 h throughout. Besides, the Stability result in series [10] is listed as “Stable”.
As for `CC(=O)N[C@H]1Cc2ccc(cc2)Oc2cccc(c2)C[C@@H](C(=O)N[C@@H](CCCNC(=N)N)C(=O)c2nc3ccccc3s2)NC(=O)[C@H](CC(C)C)NC1=O`, the values for the IC50 in series [4] and in [9] were 0.2 nM and 13000 nM, respectively. This molecule also gave a t1/2 in series [11] of 4.5 h. For the same molecule, the Drug uptake entry in series [12] is on record as “Active”.
Regarding `CC(=O)N[C@H]1Cc2ccc(cc2)OC/C=C\CNC(=O)CC[C@@H](C(=O)N[C@@H](CCCNC(=N)N)C(=O)c2nc3ccccc3s2)NC(=O)[C@H](CC(C)C)NC1=O`, the remaining at 2 h in [5] came out at 66%; in series [6], 76%. The t1/2 in series [7] is 3.93 h; in [8] it was greater than 4.82 h. Also, in series [9], the IC50 was greater than 20000 nM.
Take `CC(=O)N[C@H]1Cc2ccc(cc2)OCCCC[C@@H](C(=O)N[C@@H](CCCNC(=N)N)C(=O)c2nc3ccccc3s2)NC(=O)[C@@H](Cc2c[nH]c3ccccc23)NC1=O`: the IC50 in series [1] amounted to 3.7 nM. In addition, the values for the remaining at 2 h in series [5] and in [6] were 100% and 53%, respectively. Also, in [8], the t1/2 was 1.95 h. Besides, the Stability entry in series [10] is given as “Stable”.
As to `CC(=O)N[C@H]1CCCCn2cc(nn2)C[C@H](C(=O)N[C@@H](CCCNC(=N)N)C(=O)c2nc3ccccc3s2)NC(=O)[C@H](CC(C)C)NC1=O`, the remaining at 2 h came to 82% in [5] and 83% in [6]. The t1/2 in series [7] and in [8] was greater than 4.82 h in each case.
On to `CC(=O)N[C@H]1Cc2ccc(cc2)OC/C=C/C[C@@H](C(=O)N[C@@H](CCCNC(=N)N)C(=O)c2nc3ccccc3s2)NC(=O)[C@H](CC(C)C)NC1=O`, for which the IC50 in series [1] was 1.2 nM; in series [2], 26 nM; in [3], 3.4 nM; in [9], greater than 20000 nM. The remaining at 2 h in [5] was determined as 86%; in series [6], 77%. The t1/2 in series [7] and in series [8] was greater than 4.82 h in each case. Also, the “beta t1/2” value in series [13] was less than 0.5 h.
As for `CC(=O)N[C@H]1Cc2ccc(cc2)OCCCC[C@@H](C(=O)N[C@@H](CCCNC(=N)N)C(=O)c2nc3ccccc3s2)NC(=O)[C@H](CC(C)C)NC1=O`, the results for the remaining at 2 h in series [5] and in series [6] were 98% and 79%, respectively. The t1/2 in [7] and in series [8] was greater than 4.82 h in each case. Also, in [10], the Stability entry is “Stable”.
For `CC(=O)N[C@H]1Cc2cn(nn2)CCCC[C@H](C(=O)N[C@@H](CCCNC(=N)N)C(=O)c2nc3ccccc3s2)NC(=O)[C@H](CC(C)C)NC1=O`, the figures for the remaining at 2 h in series [5] and in series [6] were 83% and 85%, respectively. The t1/2 in [7] and in series [8] was greater than 4.82 h each time.
Consider `CC(=O)N[C@H]1Cc2ccc(cc2)OCCCC[C@@H](C(=O)N[C@@H](CCCNC(=N)N)C(=O)c2nc3ccccc3s2)NC(=O)[C@H](Cc2ccccc2)NC1=O`, for which the IC50 in series [1] is 16 nM. In addition, the remaining at 2 h is 80% in [5] and 65% in [6]. Moreover, the t1/2 in [7] was greater than 4.82 h; in series [8] it was 3.15 h.
With `CC(=O)N[C@H]1Cc2ccc(cc2)Oc2ccc(cc2)C[C@@H](C(=O)N[C@@H](CCCNC(=N)N)C(=O)c2nc3ccccc3s2)NC(=O)[C@H](CC(C)C)NC1=O`, the Ratio IC50 in [14] was 200; in series [15], 144; in [16], 6. Further, the IC50 stood at 1.2 nM in series [1], 250 nM in series [2], 180 nM in [3] and 7.5 nM in [4].
